Key:
[1] = system: NF-kB; test: NFkB-luciferase reporter in IL-1α-stimulated rabbit articular cartilage tissue; assay type: cell-based; details: 10 μg/mL, 5 ng/mL rhIL-1α
Method: (§1) A five-week-old rabbit was killed, from the hock joint of which the articular cartilage was then taken. The articular surface (200˜220 mg/joint) was placed in a complete medium (DMEM, supplemented with heat inactivated 5% FBS; penicillin 100 U/mL; streptomycin 100 μg/mL) under sterile conditions. It was washed three or four times and then incubated at 37° C. for about 1˜2 days under sterile conditions and under 5% CO2/95% air conditions, after which AP-1-luciferase or NFkB-luciferase reporter plasmid DNA (each 0.5 μg: Stratagene) was transfected into the incubated tissue using a Lipofectamin transfection reagent (Invitrogen, Carlsbad, Calif., U.S.A.). After 24 hours, the complete medium was exchanged with a basic medium (DMEM, supplemented with heat inactivated 1% FBS, 10 mM HEPES, penicillin 100 U/mL, streptomycin 100 μg/mL). […] After 1 hour, the culture medium of each group was treated with 5 ng/mL rhIL-1α (R&D systems, Minneapolis, USA). Then, the culture medium was incubated at […] under 5% CO2/95% air conditions for 60 hours, and then treated with a lysis buffer (0.1M potassium phosphate buffer, pH 7.8/1% Triton X-100/1 mM DTT/2 mM EDTA), and the luciferase activity in the culture medium was measured using a luminometer (Monolight 2010).

[2] = system: AP-1; test: AP-1-luciferase reporter in IL-1α-stimulated rabbit articular cartilage tissue; assay type: cell-based; details: 10 μg/mL, 5 ng/mL rhIL-1α; for inhibition at 10 µg/mL: Oryctolagus cuniculus, AP1, luciferase activity
Method: as §1

[3] = system: arthritis induced rabbit; test: External-use compositions in collagenase arthritis induced rabbit; assay type: in vivo; details: for Heating score / Limping score / Reddening score / Swelling score: score 0-3; for Max. Effect during Treatment: (total score 7th day − 14th day)/7th day; for Total Treatment Effect: (total score 7th day − 21st day)/7th day; for Healing Effect upon Discontinuation of Treatment: (total score 14th day − 21st day)/14th day
Method: The composition of a carrier used to absorb the active ingredient into the skin was made referring to Bookman et al (Can. Med. Assoc. J. 171(4) 333-338 (2004)).
In order to induce arthritis in the rabbit, six test groups were set up, and five rabbits were randomly assigned into each group. A collagenase solution (4 mg/mL, saline) was filtered with a 0.22 μm membrane. 2.5˜3.0 kg weighed rabbits assigned into six test groups were anesthetized with tiletamine-zolazepam (Zoletil 50, Virbac, France). The region around the right knee joint of each rabbit was shaved and disinfected, after which the articular cavity thereof was injected with 0.25 mL of saline in one test group and 0.25 mL of the collagenase solution in the other five test groups (Choi, et al. Osteoarthritis and Cartilage 10, 471-478 (2002)). […] This model has been adopted because it is similar to the degeneration of the cartilage tissue in the human degenerative arthritis.
From the 7th day, 0.3 mL of each of the external-use compositions of Table 3 was sufficiently applied two times per day for 7 days to the affected part of the five test groups treated with the collagenase solution, and no treatment was performed for the following 7 days in order to evaluate the fundamental healing effects. The swelling, reddening, heat and limping of the articular part were quantitatively evaluated on the day (0th day) immediately before collagenase treatment, the 7th day, the 14th day and the 21st day, using the evaluation criteria comprising 0 (normal), 1 (low), 2 (middle), 3 (high). In order to objectively evaluate the effects of respective treatment solutions, the total score at each evaluation was compared, and “maximum effect during treatment”, “total treatment effect”, “healing effect upon discontinuation of treatment” were calculated by the following equations.
(1) Maximum effect during treatment=(total score on 7th day−total score on 14th day)/total score on 7th day,
(2) Total treatment effect=(total score on 7th day−total score on 21st day)/total score on 7th day,
(3) Healing effect upon discontinuation of treatment=(total score on 14th day−total score on 21st day)/total score on 14th day.

[4] = 7th Day (before treatment), 1.5% active, 0.3 mL twice daily topical
[5] = 14th Day (end of 7-day treatment)
[6] = 21st Day (7 days after discontinuation)

Compound: CC(=O)Oc1ccccc1C(=O)O [Aspirin, aspirin]
- NF-kB Activity Inhibition (%) [1]: 48%
- inhibition at 10 µg/mL [2]: 46%
- Heating score ([3]; 7th Day (before treatment)): 3.0 ± 0.00
- Limping score ([3]; 7th Day (before treatment)): 2.8 ± 0.45
- Reddening score ([3]; 7th Day (before treatment)): 2.8 ± 0.45
- Swelling score [3, 4]: 3.0 ± 0.00
- Total Score ([3]; 14th Day): 6.0 ± 0.71
- Swelling score [3, 5]: 1.6 ± 0.55
- Heating score ([3]; 14th Day): 1.4 ± 0.55
- Limping score ([3]; 14th Day): 1.4 ± 0.55
- Reddening score ([3]; 14th Day): 1.6 ± 0.55
- Total Score ([3]; 21st Day): 5.0 ± 1.0
- Swelling score [3, 6]: 1.2 ± 0.45
- Heating score ([3]; 21st Day): 1.2 ± 0.45
- Limping score ([3]; 21st Day): 1.2 ± 0.45
- Reddening score ([3]; 21st Day): 1.4 ± 0.55
- Max. Effect during Treatment [3]: 48.3%
- Total Treatment Effect [3]: 56.9%
- Healing Effect upon Discontinuation of Treatment [3]: 16.7%

Compound: Cc1ccc(-c2cc(C(F)(F)F)nn2-c2ccc(S(N)(=O)=O)cc2)cc1 [Celecoxib, celecoxib]
- NF-kB Activity Inhibition (%) [1]: 10%
- inhibition at 10 µg/mL [2]: 23%

Compound: O=C([O-])Cc1ccccc1Nc1c(Cl)cccc1Cl.[Na+] [Dichlofenac Sodium]
- Total Score ([3]; 7th Day (before treatment)): 11.4 ± 1.34
- Heating score ([3]; 7th Day (before treatment)): 2.8 ± 0.45
- Limping score ([3]; 7th Day (before treatment)): 3.0 ± 0.00
- Reddening score ([3]; 7th Day (before treatment)): 2.8 ± 0.45
- Swelling score [3, 4]: 2.8 ± 0.45
- Total Score ([3]; 14th Day): 5.8 ± 1.3
- Swelling score [3, 5]: 1.4 ± 0.55
- Heating score ([3]; 14th Day): 1.4 ± 0.55
- Limping score ([3]; 14th Day): 1.6 ± 0.55
- Reddening score ([3]; 14th Day): 1.4 ± 0.55
- Total Score ([3]; 21st Day): 5.4 ± 0.55
- Swelling score [3, 6]: 1.4 ± 0.55
- Heating score ([3]; 21st Day): 1.2 ± 0.45
- Limping score ([3]; 21st Day): 1.4 ± 0.55
- Reddening score ([3]; 21st Day): 1.4 ± 0.55
- Max. Effect during Treatment [3]: 49.1%
- Total Treatment Effect [3]: 52.6%
- Healing Effect upon Discontinuation of Treatment [3]: 6.9%

Compound: O=C(O)Cc1ccccc1Nc1c(Cl)cccc1Cl [Dichlofenac, dichlofenac]
- NF-kB Activity Inhibition (%) [1]: 32%
- AP-1 Activity Inhibition (%) [2]: 34%

Compound: CC(C)Cc1ccc(C(C)C(=O)O)cc1 (stereo not shown) [Ibuprofen, ibuprofen]
- NF-kB Activity Inhibition (%) [1]: 23%
- inhibition at 10 µg/mL [2]: 27%

Compound: COc1ccc2c(c1)c(CC(=O)O)c(C)n2C(=O)c1ccc(Cl)cc1 [Indomethacin, indomethacin]
- inhibition at 10 µg/mL [2]: 34%

Compound: CC(C(=O)O)c1cccc(C(=O)c2ccccc2)c1 (stereo not shown) [Ketoprofen, ketoprofen]
- NF-kB Activity Inhibition (%) [1]: 12%
- inhibition at 10 µg/mL [2]: 22%

Reference: US8673965B2, “Composition for the treatment of arthritis containing a dibenzo-p-dioxin derivative as the active ingredient” (Livechem, Inc., priority 2008, dated 2014)
